Laboratory results: patent US20240360178A1, “MACROCYCLIC IMMUNOMODULATORS” (Bristol-Myers Squibb Company, priority 2021, published 2024)
Positions of bridges follow the written chain, without caps; N, C: chain ends. Non-standard residues stand in square brackets, D forms with d. Residues, ends and D or L forms follow the SMILES beside them. ξ: configuration not given here. *: point of attachment. Phe(4-CONH2) = NC(=O)c1ccc(C[C@H](N)C(=O)O)cc1; Phe(4-CH2NH2) = NCc1ccc(C[C@H](N)C(=O)O)cc1; Bip = N[C@@H](Cc1ccc(-c2ccccc2)cc1)C(=O)O; NMeY = CN[C@@H](Cc1ccc(O)cc1)C(=O)O; NMeF = CN[C@@H](Cc1ccccc1)C(=O)O; hArg = N=C(N)NCCCC[C@H](N)C(=O)O; Cit = NC(=O)NCCC[C@H](N)C(=O)O; NMeL = CN[C@@H](CC(C)C)C(=O)O; hSer = N[C@@H](CCO)C(=O)O; Carboxymethyl = O=C(O)C*; NMeA = CN[C@@H](C)C(=O)O; Orn = NCCC[C@H](N)C(=O)O; Dab = NCC[C@H](N)C(=O)O; Dap = NC[C@H](N)C(=O)O; ξP = O=C(O)C1CCCN1

Molecular target: T1, human PD-1 (Jurkat-PD-1 cells) / PE-labeled human PD-L1-Ig (Homo sapiens, UniProt Q15116)
T1 construct: expressed in transfected cells; host or cells: Jurkat cell line over-expressing human PD-1
T1 sequence (Q15116 25-288): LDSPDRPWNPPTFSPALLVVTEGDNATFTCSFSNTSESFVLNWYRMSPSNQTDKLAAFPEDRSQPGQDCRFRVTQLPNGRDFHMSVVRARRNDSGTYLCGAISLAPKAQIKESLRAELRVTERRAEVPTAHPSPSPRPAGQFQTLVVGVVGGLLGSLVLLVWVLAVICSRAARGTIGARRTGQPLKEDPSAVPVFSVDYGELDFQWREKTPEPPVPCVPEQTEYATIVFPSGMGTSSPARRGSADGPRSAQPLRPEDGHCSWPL
Test: Jurkat-PD-1 Cell Binding High-Content Screening Assay (CBA); Jurkat hPD1-PDL1 assay
Settings: Jurkat cell line over-expressing human PD-1; PE-labeled PD-L1-Ig 20 nM final; compound incubated 2 hours at 37° C.; read-out: Jurkat HPD1-PDL1 IC50
How it was run: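 Jurkat cells overexpressing human PD-1 (8×10^3 per well, DMEM with 10% FCS) were preincubated with compound for 2 hours at 37° C. PE-labeled human PD-L1-Ig was then added at 20 nM final. Binding was quantified by high-content imaging.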

SMILES | IC50
CC(C)C[C@@H]1NC(=O)[C@H](CCCNC(=N)N)NC(=O)[C@H](Cc2ccccc2)N(C)C(=O)[C@H](CCN)NC(=O)[C@H](CCCNC(=N)N)NC(=O)[C@H](Cc2ccc(-c3ccccc3)cc2)NC(=O)[C@H](C(C)C)NC(=O)[C@H](Cc2c[nH]c3ccccc23)NC(=O)[C@H](CC(=O)O)NC(=O)[C@H](Cc2ccc(O)cc2)NC(=O)[C@H](Cc2ccccc2)NC(=O)CSC[C@@H](C(=O)NCC(N)=O)NC(=O)[C@H](CO)NC(=O)[C@H](C(C)C)NC1=O [Example 1255] ({CH2CO}-FYDWV[Bip]R[Dab][NMeF]RLVSCG-NH2; thioether N-14) | 430 nM
CC(C)C[C@@H]1NC(=O)[C@H](CCCNC(=N)N)NC(=O)[C@H](Cc2ccccc2)N(C)C(=O)[C@H](C)N(C)C(=O)[C@H](CCCNC(=N)N)NC(=O)[C@H](Cc2ccc(-c3ccccc3)cc2)NC(=O)[C@H](C(C)C)NC(=O)[C@H](Cc2c[nH]c3ccccc23)NC(=O)[C@H](CC(=O)O)NC(=O)[C@H](Cc2ccc(O)cc2)NC(=O)[C@H](Cc2ccc(CN)cc2)NC(=O)CSC[C@@H](C(=O)NCC(N)=O)NC(=O)[C@H](CO)NC(=O)[C@H](C(C)C)NC1=O [Example 1256] ({CH2CO}-[Phe(4-CH2NH2)]YDWV[Bip]R[NMeA][NMeF]RLVSCG-NH2; thioether N-14) | 340 nM
CC(C)C[C@@H]1NC(=O)[C@H](CCCNC(=N)N)NC(=O)[C@H](Cc2ccccc2)N(C)C(=O)[C@H](C)N(C)C(=O)[C@H](CCCNC(=N)N)NC(=O)[C@H](Cc2ccc(-c3ccccc3)cc2)NC(=O)[C@H](C(C)C)NC(=O)[C@H](Cc2c[nH]c3ccccc23)NC(=O)[C@H](CC(=O)O)NC(=O)[C@H](Cc2ccc(O)cc2)NC(=O)[C@H](Cc2ccc(C(N)=O)cc2)NC(=O)CSC[C@@H](C(=O)NCC(N)=O)NC(=O)[C@H](CO)NC(=O)[C@H](C(C)C)NC1=O [Example 1257] ({CH2CO}-[Phe(4-CONH2)]YDWV[Bip]R[NMeA][NMeF]RLVSCG-NH2; thioether N-14) | 80 nM
CC(C)C[C@@H]1NC(=O)[C@H](CCCNC(=N)N)NC(=O)[C@H](Cc2ccccc2)N(C)C(=O)[C@H](C)N(C)C(=O)[C@H](CCCNC(=N)N)NC(=O)[C@H](Cc2ccc(-c3ccccc3)cc2)NC(=O)[C@H](C(C)C)NC(=O)[C@H](Cc2c[nH]c3ccccc23)NC(=O)[C@H](CC(=O)O)NC(=O)[C@H](Cc2ccc(O)cc2)NC(=O)CNC(=O)CSC[C@@H](C(=O)NCC(N)=O)NC(=O)[C@H](CO)NC(=O)[C@H](C(C)C)NC1=O [Example 1258] ({CH2CO}-GYDWV[Bip]R[NMeA][NMeF]RLVSCG-NH2; thioether N-14) | 240 nM
COCC[C@@H]1NC(=O)[C@H](C(C)C)NC(=O)[C@H](CC(C)C)NC(=O)[C@H](CCCNC(=N)N)NC(=O)[C@H](Cc2ccccc2)N(C)C(=O)[C@H](C)N(C)C(=O)[C@H](CCCNC(=N)N)NC(=O)[C@H](Cc2ccc(-c3ccccc3)cc2)NC(=O)[C@H](C(C)C)NC(=O)[C@H](Cc2c[nH]c3ccccc23)NC(=O)[C@H](CC(=O)O)NC(=O)[C@H](Cc2ccc(O)cc2)NC(=O)[C@H](Cc2ccccc2)NC(=O)CSC[C@@H](C(=O)NCC(N)=O)NC1=O [Example 1259] ({CH2CO}-FYDWV[Bip]R[NMeA][NMeF]RLV[hSer](Me)CG-NH2; thioether N-14) | 260 nM
CC(C)C[C@@H]1NC(=O)[C@H](CCCNC(=N)N)NC(=O)[C@H](Cc2ccccc2)N(C)C(=O)[C@H](C)N(C)C(=O)[C@H](CCCNC(=N)N)NC(=O)[C@H](Cc2ccc(-c3ccccc3)cc2)NC(=O)[C@H](C(C)C)NC(=O)[C@H](Cc2c[nH]c3ccccc23)NC(=O)[C@H](CC(=O)O)NC(=O)[C@H](Cc2ccc(O)cc2)NC(=O)[C@H](CN)NC(=O)CSC[C@@H](C(=O)NCC(N)=O)NC(=O)[C@H](CO)NC(=O)[C@H](C(C)C)NC1=O [Example 1264] ({CH2CO}-[Dap]YDWV[Bip]R[NMeA][NMeF]RLVSCG-NH2; thioether N-14) | 160 nM
CC(C)C[C@@H]1NC(=O)[C@H](CCCNC(=N)N)NC(=O)[C@H](Cc2ccccc2)N(C)C(=O)[C@H](C)N(C)C(=O)[C@H](CCCNC(=N)N)NC(=O)[C@H](Cc2ccc(-c3ccccc3)cc2)NC(=O)[C@H](C(C)C)NC(=O)[C@H](Cc2c[nH]c3ccccc23)NC(=O)[C@H](CC(=O)O)NC(=O)[C@H](Cc2ccc(OCC(=O)O)cc2)NC(=O)[C@H](Cc2ccccc2)NC(=O)CSC[C@@H](C(=O)NCC(N)=O)NC(=O)[C@H](CO)NC(=O)[C@H](C(C)C)NC1=O [Example 1275] ({CH2CO}-FY(Carboxymethyl)DWV[Bip]R[NMeA][NMeF]RLVSCG-NH2; thioether N-14) | 30 nM
CC(C)C[C@@H]1NC(=O)[C@H](CCCNC(=N)N)NC(=O)[C@H](Cc2ccccc2)N(C)C(=O)[C@H](CCCNC(N)=O)NC(=O)[C@H](CCCNC(=N)N)NC(=O)[C@H](Cc2ccc(-c3ccccc3)cc2)NC(=O)[C@H](C(C)C)NC(=O)[C@H](Cc2c[nH]c3ccccc23)NC(=O)[C@H](CC(=O)O)NC(=O)[C@H](Cc2ccc(O)cc2)NC(=O)[C@H](Cc2ccccc2)NC(=O)CSC[C@@H](C(=O)NCC(N)=O)NC(=O)[C@H](CO)NC(=O)[C@H](C(C)C)NC1=O [Example 1276] ({CH2CO}-FYDWV[Bip]R[Cit][NMeF]RLVSCG-NH2; thioether N-14) | 840 nM
CC(C)C[C@@H]1NC(=O)[C@H](CCCNC(=N)N)NC(=O)[C@H](Cc2ccccc2)N(C)C(=O)[C@H](C)N(C)C(=O)[C@H](CCCNC(=N)N)NC(=O)[C@H](Cc2ccc(-c3ccccc3)cc2)NC(=O)[C@H](C(C)C)NC(=O)[C@H](Cc2c[nH]c3ccccc23)NC(=O)[C@H](CC(=O)O)NC(=O)[C@H](Cc2ccc(CN)cc2)NC(=O)[C@H](Cc2ccccc2)NC(=O)CSC[C@@H](C(=O)NCC(N)=O)NC(=O)[C@H](CO)NC(=O)[C@H](C(C)C)NC1=O [Example 1277] ({CH2CO}-F[Phe(4-CH2NH2)]DWV[Bip]R[NMeA][NMeF]RLVSCG-NH2; thioether N-14) | 140 nM
CC(C)C[C@@H]1NC(=O)[C@H](CCCN)NC(=O)[C@H](Cc2ccccc2)N(C)C(=O)[C@H](C)N(C)C(=O)[C@H](CCCNC(=N)N)NC(=O)[C@H](Cc2ccc(-c3ccccc3)cc2)NC(=O)[C@H](C(C)C)NC(=O)[C@H](Cc2c[nH]c3ccccc23)NC(=O)[C@H](CC(=O)O)NC(=O)[C@H](Cc2ccc(O)cc2)NC(=O)[C@H](Cc2ccccc2)NC(=O)CSC[C@@H](C(=O)NCC(N)=O)NC(=O)[C@H](CO)NC(=O)[C@H](C(C)C)NC1=O [Example 1278] ({CH2CO}-FYDWV[Bip]R[NMeA][NMeF][Orn]LVSCG-NH2; thioether N-14) | 310 nM
CC(C)C[C@@H]1NC(=O)[C@H](CCCCNC(=N)N)NC(=O)[C@H](Cc2ccccc2)N(C)C(=O)[C@H](C)N(C)C(=O)[C@H](CCCNC(=N)N)NC(=O)[C@H](Cc2ccc(-c3ccccc3)cc2)NC(=O)[C@H](C(C)C)NC(=O)[C@H](Cc2c[nH]c3ccccc23)NC(=O)[C@H](CC(=O)O)NC(=O)[C@H](Cc2ccc(O)cc2)NC(=O)[C@H](Cc2ccccc2)NC(=O)CSC[C@@H](C(=O)NCC(N)=O)NC(=O)[C@H](CO)NC(=O)[C@H](C(C)C)NC1=O [Example 1279] ({CH2CO}-FYDWV[Bip]R[NMeA][NMeF][hArg]LVSCG-NH2; thioether N-14) | 320 nM

Other lines, results leading:

IC50 | SMILES
500 nM | CC(C)C[C@@H]1NC(=O)[C@H](CCCNC(=N)N)NC(=O)[C@H](Cc2ccc(O)cc2)N(C)C(=O)[C@H](C)N(C)C(=O)[C@H](CCCNC(=N)N)NC(=O)[C@H](Cc2ccc(-c3ccccc3)cc2)NC(=O)[C@H](C(C)C)NC(=O)[C@H](Cc2c[nH]c3ccccc23)NC(=O)[C@H](CC(=O)O)NC(=O)[C@H](Cc2ccc(O)cc2)NC(=O)[C@H](Cc2ccccc2)NC(=O)CSC[C@@H](C(=O)NCC(N)=O)NC(=O)[C@H](CO)NC(=O)[C@H](C(C)C)NC1=O [Example 1280] ({CH2CO}-FYDWV[Bip]R[NMeA][NMeY]RLVSCG-NH2; thioether N-14)
460 nM | CC(C)C[C@@H]1NC(=O)[C@H](CCCNC(=N)N)NC(=O)[C@H](CC(C)C)N(C)C(=O)[C@H](C)N(C)C(=O)[C@H](CCCNC(=N)N)NC(=O)[C@H](Cc2ccc(-c3ccccc3)cc2)NC(=O)[C@H](C(C)C)NC(=O)[C@H](Cc2c[nH]c3ccccc23)NC(=O)[C@H](CC(=O)O)NC(=O)[C@H](Cc2ccc(O)cc2)NC(=O)[C@H](Cc2ccccc2)NC(=O)CSC[C@@H](C(=O)NCC(N)=O)NC(=O)[C@H](CO)NC(=O)[C@H](C(C)C)NC1=O [Example 1281] ({CH2CO}-FYDWV[Bip]R[NMeA][NMeL]RLVSCG-NH2; thioether N-14)
290 nM | CC(C)C[C@@H]1NC(=O)[C@H](CCCNC(=N)N)NC(=O)C2CCCN2C(=O)[C@H](C)N(C)C(=O)[C@H](CCCNC(=N)N)NC(=O)[C@H](Cc2ccc(-c3ccccc3)cc2)NC(=O)[C@H](C(C)C)NC(=O)[C@H](Cc2c[nH]c3ccccc23)NC(=O)[C@H](CC(=O)O)NC(=O)[C@H](Cc2ccc(O)cc2)NC(=O)[C@H](Cc2ccccc2)NC(=O)CSC[C@@H](C(=O)NCC(N)=O)NC(=O)[C@H](CO)NC(=O)[C@H](C(C)C)NC1=O (stereo partly shown) [Example 1282] ({CH2CO}-FYDWV[Bip]R[NMeA][ξP]RLVSCG-NH2; thioether N-14)
700 nM | CC(C)C[C@@H]1NC(=O)[C@H](CCCNC(=N)N)NC(=O)[C@H](Cc2ccccc2)N(C)C(=O)[C@H](C)N(C)C(=O)[C@H](CCCNC(=N)N)NC(=O)[C@H](Cc2ccc(-c3ccccc3)cc2)NC(=O)[C@H]([C@@H](C)O)NC(=O)[C@H](Cc2c[nH]c3ccccc23)NC(=O)[C@H](CC(=O)O)NC(=O)[C@H](Cc2ccc(O)cc2)NC(=O)[C@H](Cc2ccccc2)NC(=O)CSC[C@@H](C(=O)NCC(N)=O)NC(=O)[C@H](CO)NC(=O)[C@H](C(C)C)NC1=O [Example 1283] ({CH2CO}-FYDWT[Bip]R[NMeA][NMeF]RLVSCG-NH2; thioether N-14)
820 nM | CC[C@H](C)[C@@H]1NC(=O)[C@H](Cc2c[nH]c3ccccc23)NC(=O)[C@H](CC(=O)O)NC(=O)[C@H](Cc2ccc(O)cc2)NC(=O)[C@H](Cc2ccccc2)NC(=O)CSC[C@@H](C(=O)NCC(N)=O)NC(=O)[C@H](CO)NC(=O)[C@H](C(C)C)NC(=O)[C@H](CC(C)C)NC(=O)[C@H](CCCNC(=N)N)NC(=O)[C@H](Cc2ccccc2)N(C)C(=O)[C@H](C)N(C)C(=O)[C@H](CCCNC(=N)N)NC(=O)[C@H](Cc2ccc(-c3ccccc3)cc2)NC1=O [Example 1284] ({CH2CO}-FYDWI[Bip]R[NMeA][NMeF]RLVSCG-NH2; thioether N-14)
